Reference: patent publication US12589158B2 (priority 2022, dated 2026)

Assay: Pharmacokinetics following single administration in SD rat
Design: species or system SD rats
Settings: in vivo, sc, 50 nmol/kg
Method: The compound is administrated to male SD rats (230-268 g, n=3) at a dose of 50.0 nmol/kg (s.c.) or 25.0 nmol/kg (i.v.). […] 30.0 μL of thawed plasma sample is taken. 150 μL of acetonitrile solution (containing 5 ng mL^−1 Verapamil, 50 ng·mL^−1 Glibenclamide, 200 ng·mL^−1 Tolbutamide and 200 ng·mL^−1 Diclofenac) are added to precipitate protein. The mixture is vortexed for 5 minutes, and centrifuged at 3700 rpm for 8 minutes. 70.0 μL of the supernatant is taken, into which 70.0 μL of 0.5% aqueous formic acid solution is added. The mixture is vortexed for 5 minutes. 15 μL of the mixture solution is sampled and injected into the LC-MS/MS to determine the drug concentration in plasma. 20.0 μL of thawed plasma sample is taken. 60 μL of acetonitrile solution (containing 5 ng mL^−1 Verapamil, 50 ng·mL^−1 Glibenclamide, 200 ng·mL^−1 Tolbutamide and 200 ng·mL^−1 Diclofenac) are added to precipitate protein. […] The mixture is vortexed for 10 minutes. 10.0 μL of the mixture solution is sampled and injected into the LC-MS/MS to determine the drug concentration in plasma. 30.0 μL of thawed plasma sample is taken. 150 μL of acetonitrile solution (containing 5 ng mL^−1 Verapamil, 50 ng mL^−1 Glibenclamide, 200 ng·mL^−1 Tolbutamide and 200 ng·mL^−1 Diclofenac) are added to precipitate protein. The mixture is vortexed for 5 minutes, and centrifuged at 3700 rpm for 8 minutes. 70.0 μL of the supernatant is taken, into which 70.0 μL of 0.5% aqueous formic acid solution is added. The mixture is vortexed for 5 minutes. 10.0 μL of the mixture solution is sampled and injected into the LC-MS/MS to determine the drug concentration in plasma.

Row | SMILES | MRT inf [h] | MRT last [h]
1 | CC[C@H](C)[C@H](NC(=O)C(C)(C)NC(=O)[C@H](Cc1ccc(O)cc1)NC(=O)[C@H](CC(=O)O)NC(=O)[C@H](CO)NC(=O)[C@@H](NC(=O)C(C)(Cc1ccccc1)NC(=O)[C@@H](NC(=O)CNC(=O)[C@H](CCC(=O)O)NC(=O)C(C)(C)NC(=O)[C@@H](N)Cc1ccc(O)cc1)[C@@H](C)O)[C@@H](C)O)C(=O)NC(C)(C)C(=O)N[C@@H](CC(C)C)C(=O)N[C@@H](CC(=O)O)C(=O)N[C@@H](CCCCN)C(=O)N[C@@H](CCC(N)=O)C(=O)N[C@@H](C)C(=O)N[C@@H](CCC(N)=O)C(=O)N[C@@H](C)C(=O)N[C@@H](CCC(=O)O)C(=O)N[C@@H](Cc1ccccc1)C(=O)N[C@H](C(=O)N[C@@H](CCCCN)C(=O)N[C@@H](Cc1c[nH]c2ccccc12)C(=O)N[C@@H](CC(C)C)C(=O)N[C@@H](CC(C)C)C(=O)N[C@@H](CCCCNC(=O)COCCOCCNC(=O)COCCOCCNC(=O)CC[C@H](NC(=O)CC[C@H](NC(=O)CC[C@H](NC(=O)CCCCCCCCCCCCCCCCC(=O)O)C(=O)O)C(=O)O)C(=O)O)C(=O)NCC(=O)NCC(=O)N1CCC[C@H]1C(=O)N[C@@H](CO)C(=O)N[C@@H](CO)C(=O)NCC(=O)N[C@@H](C)C(=O)N1CCC[C@H]1C(=O)N1CCC[C@H]1C(=O)N1CCC[C@H]1C(=O)N[C@@H](CO)C(=O)N[C@@H](CCCCN)C(N)=O)C(C)C (some centres unmarked) [P018] | 33.4 ± 7 | 28.5 ± 4.45
2 | CC[C@H](C)[C@H](NC(=O)C(C)(C)NC(=O)[C@H](Cc1ccc(O)cc1)NC(=O)[C@H](CC(=O)O)NC(=O)[C@H](CO)NC(=O)[C@@H](NC(=O)C(C)(Cc1ccccc1)NC(=O)[C@@H](NC(=O)CNC(=O)[C@H](CCC(=O)O)NC(=O)C(C)(C)NC(=O)[C@@H](N)Cc1ccc(O)cc1)[C@@H](C)O)[C@@H](C)O)C(=O)NC(C)(C)C(=O)N[C@@H](CC(C)C)C(=O)N[C@@H](CC(=O)O)C(=O)N[C@@H](CCCCN)C(=O)N[C@@H](CCC(N)=O)C(=O)N[C@@H](C)C(=O)N[C@@H](CCC(N)=O)C(=O)N[C@@H](C)C(=O)N[C@@H](CCC(=O)O)C(=O)N[C@@H](Cc1ccccc1)C(=O)N[C@H](C(=O)N[C@@H](CCCCN)C(=O)N[C@@H](Cc1c[nH]c2ccccc12)C(=O)N[C@@H](CC(C)C)C(=O)N[C@@H](CC(C)C)C(=O)N[C@@H](CCCCNC(=O)COCCOCCNC(=O)COCCOCCNC(=O)CC[C@H](NC(=O)CCCCCCCCCCCCCCCCCCCCC(=O)O)C(=O)O)C(=O)NCC(=O)NCC(=O)N1CCC[C@H]1C(=O)N[C@@H](CO)C(=O)N[C@@H](CO)C(=O)NCC(=O)N[C@@H](C)C(=O)N1CCC[C@H]1C(=O)N1CCC[C@H]1C(=O)N1CCC[C@H]1C(=O)N[C@@H](CO)C(=O)N[C@@H](CCCCN)C(N)=O)C(C)C (some centres unmarked) [P017] | 36.9 ± 3.46 | 27.9 ± 2.99
3 | CC[C@H](C)[C@H](NC(=O)C(C)(C)NC(=O)[C@H](Cc1ccc(O)cc1)NC(=O)[C@H](CC(=O)O)NC(=O)[C@H](CO)NC(=O)[C@@H](NC(=O)C(C)(Cc1ccccc1)NC(=O)[C@@H](NC(=O)CNC(=O)[C@H](CCC(=O)O)NC(=O)C(C)(C)NC(=O)[C@@H](N)Cc1ccc(O)cc1)[C@@H](C)O)[C@@H](C)O)C(=O)NC(C)(C)C(=O)N[C@@H](CC(C)C)C(=O)N[C@@H](CC(=O)O)C(=O)N[C@@H](CCCCN)C(=O)N[C@@H](CCC(N)=O)C(=O)N[C@@H](C)C(=O)N[C@@H](CCC(N)=O)C(=O)N[C@@H](C)C(=O)N[C@@H](CCC(=O)O)C(=O)N[C@@H](Cc1ccccc1)C(=O)N[C@H](C(=O)N[C@@H](CCCCN)C(=O)N[C@@H](Cc1c[nH]c2ccccc12)C(=O)N[C@@H](CC(C)C)C(=O)N[C@@H](CC(C)C)C(=O)N[C@@H](CCCCNC(=O)COCCOCCNC(=O)COCCOCCNC(=O)COCCOCCNC(=O)CC[C@H](NC(=O)CCCCCCCCCCCCCCCCC(=O)O)C(=O)O)C(=O)NCC(=O)NCC(=O)N1CCC[C@H]1C(=O)N[C@@H](CO)C(=O)N[C@@H](CO)C(=O)NCC(=O)N[C@@H](C)C(=O)N1CCC[C@H]1C(=O)N1CCC[C@H]1C(=O)N1CCC[C@H]1C(=O)N[C@@H](CO)C(=O)N[C@@H](CCCCN)C(N)=O)C(C)C (some centres unmarked) [P019] | 18.3 ± 2.76 | 17.1 ± 2.55
4 | CC[C@H](C)[C@H](NC(=O)C(C)(C)NC(=O)[C@H](Cc1ccc(O)cc1)NC(=O)[C@H](CC(=O)O)NC(=O)[C@H](CO)NC(=O)[C@@H](NC(=O)C(C)(Cc1ccccc1)NC(=O)[C@@H](NC(=O)CNC(=O)[C@H](CCC(=O)O)NC(=O)C(C)(C)NC(=O)[C@@H](N)Cc1ccc(O)cc1)[C@@H](C)O)[C@@H](C)O)C(=O)NC(C)(C)C(=O)N[C@@H](CC(C)C)C(=O)N[C@@H](CC(=O)O)C(=O)N[C@@H](CCCCN)C(=O)N[C@@H](CCC(N)=O)C(=O)N[C@@H](C)C(=O)N[C@@H](CCC(N)=O)C(=O)N[C@@H](C)C(=O)N[C@@H](CCC(=O)O)C(=O)N[C@@H](Cc1ccccc1)C(=O)N[C@H](C(=O)N[C@@H](CCCCNC(=O)COCCOCCNC(=O)COCCOCCNC(=O)CC[C@H](NC(=O)CCCCCCCCCCCCCCCCC(=O)O)C(=O)O)C(=O)N[C@@H](Cc1c[nH]c2ccccc12)C(=O)N[C@@H](CC(C)C)C(=O)N[C@@H](CC(C)C)C(=O)N[C@@H](CCCCN)C(=O)NCC(=O)NCC(=O)N1CCC[C@H]1C(=O)N[C@@H](CO)C(=O)N[C@@H](CO)C(=O)NCC(=O)N[C@@H](C)C(=O)N1CCC[C@H]1C(=O)N1CCC[C@H]1C(=O)N1CCC[C@H]1C(=O)N[C@@H](CO)C(=O)N[C@@H](CCCCN)C(N)=O)C(C)C (some centres unmarked) [P007] | 25.7 ± 1.69 | 21.4 ± 1.87
5 | CC[C@H](C)[C@H](NC(=O)C(C)(C)NC(=O)[C@H](Cc1ccc(O)cc1)NC(=O)[C@H](CC(=O)O)NC(=O)[C@H](CO)NC(=O)[C@@H](NC(=O)C(C)(Cc1ccccc1)NC(=O)[C@@H](NC(=O)CNC(=O)[C@H](CCC(=O)O)NC(=O)C(C)(C)NC(=O)[C@@H](N)Cc1ccc(O)cc1)[C@@H](C)O)[C@@H](C)O)C(=O)NC(C)(C)C(=O)N[C@@H](CC(C)C)C(=O)N[C@@H](CC(=O)O)C(=O)N[C@@H](CCCCN)C(=O)N[C@@H](CCC(N)=O)C(=O)N[C@@H](C)C(=O)N[C@@H](CCC(N)=O)C(=O)N[C@@H](C)C(=O)N[C@@H](CCC(=O)O)C(=O)N[C@@H](Cc1ccccc1)C(=O)N[C@H](C(=O)N[C@@H](CCCCNC(=O)COCCOCCNC(=O)COCCOCCNC(=O)CC[C@H](NC(=O)CCCCCCCCCCCCCCCCCCC(=O)O)C(=O)O)C(=O)N[C@@H](Cc1c[nH]c2ccccc12)C(=O)N[C@@H](CC(C)C)C(=O)N[C@@H](CC(C)C)C(=O)N[C@@H](CCCCN)C(=O)NCC(=O)NCC(=O)N1CCC[C@H]1C(=O)N[C@@H](CO)C(=O)N[C@@H](CO)C(=O)NCC(=O)N[C@@H](C)C(=O)N1CCC[C@H]1C(=O)N1CCC[C@H]1C(=O)N1CCC[C@H]1C(=O)N[C@@H](CO)C(=O)N[C@@H](CCCCN)C(N)=O)C(C)C (some centres unmarked) [P013] | 29.9 ± 1.33 | 26.2 ± 0.7
6 | CC[C@H](C)[C@H](NC(=O)C(C)(C)NC(=O)[C@H](Cc1ccc(O)cc1)NC(=O)[C@H](CC(=O)O)NC(=O)[C@H](CO)NC(=O)[C@@H](NC(=O)C(C)(Cc1ccccc1)NC(=O)[C@@H](NC(=O)CNC(=O)[C@H](CCC(=O)O)NC(=O)C(C)(C)NC(=O)[C@@H](N)Cc1ccc(O)cc1)[C@@H](C)O)[C@@H](C)O)C(=O)NC(C)(C)C(=O)N[C@@H](CC(C)C)C(=O)N[C@@H](CC(=O)O)C(=O)N[C@@H](CCCCN)C(=O)N[C@@H](CCC(N)=O)C(=O)N[C@@H](C)C(=O)N[C@@H](CCC(N)=O)C(=O)N[C@@H](C)C(=O)N[C@@H](CCC(=O)O)C(=O)N[C@@H](Cc1ccccc1)C(=O)N[C@H](C(=O)N[C@@H](CCCCN)C(=O)N[C@@H](Cc1c[nH]c2ccccc12)C(=O)N[C@@H](CC(C)C)C(=O)N[C@@H](CC(C)C)C(=O)N[C@@H](CCCCNC(=O)COCCOCCNC(=O)COCCOCCNC(=O)CC[C@H](NC(=O)CCCCCCCCCCCCCCCCC(=O)O)C(=O)O)C(=O)NCC(=O)NCC(=O)N1CCC[C@H]1C(=O)N[C@@H](CO)C(=O)N[C@@H](CO)C(=O)NCC(=O)N[C@@H](C)C(=O)N1CCC[C@H]1C(=O)N1CCC[C@H]1C(=O)N1CCC[C@H]1C(=O)N[C@@H](CO)C(=O)N[C@@H](CCCCN)C(N)=O)C(C)C (some centres unmarked) [P008] | 25.4 | 21 ± 1.85

Assay: Pharmacokinetics in cynomolgus monkeys
Settings: cynomolgus monkey, in vivo, sc, 25 nmol/kg
Method: After subcutaneous or intravenous administration to cynomolgus monkeys, plasma is collected and the drug concentration in plasma is determined to illustrate the in vivo pharmacokinetic properties of the compound according to the present invention. The compound is dissolved in 1.4% PG in 8 mM Na2HPO4 Buffer (pH 7.39), and filtered through a filter membrane (PTFE, 0.45 μm) to obtain 25 and 12.5 nmol/mL solution of the compound respectively. The obtained solutions are administered to cynomolgus monkeys (4-8 kg) at a dose of 25 nmol/kg subcutaneously (s.c.) or 12.5 nmol/kg intravenously (i.v.). […] The blood samples are centrifuged at 2200 g for 10 minutes to obtain a plasma, which is stored at −90° C. to −60° C. for further analysis and assay.
70.0 μL of thawed plasma sample is taken. 70 μL of acetonitrile (containing 1 ng/ml of the internal standard) is added to precipitate protein. The mixture is vortexed for 1 minute, and centrifuged at 14000 rpm for 10 minutes. 60.0 μL of the supernatant is taken, into which 60.0 μL of 0.5% aqueous formic acid solution is added. The mixture is vortexed for 5 minutes. 10 μL of the mixture solution is sampled and injected into the LC-MS/MS to determine the drug concentration in plasma.
Based on the drug concentration in plasma of the compounds in the cynomolgus monkeys, the pharmacokinetic parameters are calculated by applying the software Winnolin 8.2 in a non-compartmental model, and the results are shown in Table 9 and Table 10 below.

Row | SMILES | MRT inf [h] | MRT last [h]
7 | CC[C@H](C)[C@H](NC(=O)C(C)(C)NC(=O)[C@H](Cc1ccc(O)cc1)NC(=O)[C@H](CC(=O)O)NC(=O)[C@H](CO)NC(=O)[C@@H](NC(=O)C(C)(Cc1ccccc1)NC(=O)[C@@H](NC(=O)CNC(=O)[C@H](CCC(=O)O)NC(=O)C(C)(C)NC(=O)[C@@H](N)Cc1ccc(O)cc1)[C@@H](C)O)[C@@H](C)O)C(=O)NC(C)(C)C(=O)N[C@@H](CC(C)C)C(=O)N[C@@H](CC(=O)O)C(=O)N[C@@H](CCCCN)C(=O)N[C@@H](CCC(N)=O)C(=O)N[C@@H](C)C(=O)N[C@@H](CCC(N)=O)C(=O)N[C@@H](C)C(=O)N[C@@H](CCC(=O)O)C(=O)N[C@@H](Cc1ccccc1)C(=O)N[C@H](C(=O)N[C@@H](CCCCN)C(=O)N[C@@H](Cc1c[nH]c2ccccc12)C(=O)N[C@@H](CC(C)C)C(=O)N[C@@H](CC(C)C)C(=O)N[C@@H](CCCCNC(=O)COCCOCCNC(=O)COCCOCCNC(=O)CC[C@H](NC(=O)CCCCCCCCCCCCCCCCCCCCC(=O)O)C(=O)O)C(=O)NCC(=O)NCC(=O)N1CCC[C@H]1C(=O)N[C@@H](CO)C(=O)N[C@@H](CO)C(=O)NCC(=O)N[C@@H](C)C(=O)N1CCC[C@H]1C(=O)N1CCC[C@H]1C(=O)N1CCC[C@H]1C(=O)N[C@@H](CO)C(=O)N[C@@H](CCCCN)C(N)=O)C(C)C (some centres unmarked) [P017] | 77.8 ± 12.2 | 76.4 ± 12.7
